Assay results taken from patent US20240262856A1, “NOVEL SPINOSYN COMPOUNDS” (priority 2021, published 2024).
Values after ≈ are worked out from the molar mass of the structure shown. Read-outs that look alike come from different tables or passages of the source.

How the values were obtained:
[1] = system: honey bees (Apis melifera carnica, Pollman 1879); test: Single dose acute oral toxicity test on adult worker honey bees; assay type: in vivo
Experimental: Toxicity of the compounds of this invention towards honey bees (Apis melifera carnica, Pollman 1879) was assessed in comparison with commercially available samples of spinosad (LGC (Dr. Ehrenstorfer); Product code: DRE-C16972830) and the naturally produced compound butenyl spinosyn alpha 1. Solutions of spinosyn compounds were prepared in 100 mM ammonium acetate, pH=5, and later diluted in 50% (500 g/L) sucrose solution in water to final concentrations. Two final concentrations were used for each compound, 7.76 μmol/L and 15.53 μmol/L.
Single dose acute oral toxicity tests were conducted on adult worker bees according to previously described standard methods (Medrzycki at el., (2013)). Each compound and condition were tested in two parallels. Briefly, each parallel experiment consisted of 5 cages with 20 honey bees per cage. […] After uptake of the solutions honey bees were supplied with standard 50% sucrose solution and observed at 24 h and 48 h and the number of dead and live bees was estimated. Ammonium acetate solution with pH 5 was used as the negative control.

Kinetic solubility assay = assay type: physicochemical; conditions: 24 hours at room temperature (25±2° C.)
Experimental: Solubility of the compounds of the invention was assessed using kinetic solubility assay and compared to solubility of butenyl spinosyn. Stock solutions of spinosyn compounds were prepared in DMSO at 10 mM concentration). 10 uL of the stock solutions were added into 490 of in K.S. 5.4 buffer of pH 5.4 (80 mM phosphoric acid, acetic acid, boric acid buffer, adjusted the pH to pH 5.4 with 1 N HCl and 1N NaOH) or K.S. 7.4 buffer with pH of 7.4 (80 mM phosphoric acid, acetic acid, boric acid buffer, adjusted the pH to pH 7.4 with 1 N HCl and 1N NaOH). The solutions were incubated with shaking at room temperature (25±2° C.) for 24 hours. 200 uL of each solution were then transferred into a new MultiScreen filter plate (Membrane of polycarbonate) and filtered by millipore vacuum manifold, and the filtrate was collected. The concentrations of tested compounds in the filtered samples were analyzed by HPLC analysis calibrated by a standard curve generated by injection of 3 standard solutions of the relevant compound with concentrations of 1, 20, 200 μM.

[2] = system: Ostrinia nubilalis larvae; test: Insecticide efficacy on corn leaves dipped in compound solution and infested with L1 larvae (Henderson-Tilton method); assay type: in vivo; conditions: for Emax: Ostrinia nubilalis; for insecticidal activity on Ostrinia nubilalis larvae (in words): compared with Spinosad / spinetoram; for % Efficacy 3 days: 3 days post infestation; for % Efficacy 6 days: 6 days post infestation
Experimental: Insecticide activities of the compounds of this invention were assessed in comparison with commercially available samples of spinosad (LGC (Dr. Ehrenstorfer); Product code: DRE-C16972830) and spinetoram (LGC (Dr. Ehrenstorfer); Product code: DRE-C16972770) Solutions of spinosyn compounds were prepared by adding 0.05% Tween 80, lowering pH to 5.95 and sonicating. Two concentrations of each compound were used, 0.1 μg/mL and 0.3 μg/mL, with each condition tested in four parallels.
Freshly collected corn leaves were dipped into the prepared solutions. After dipping leaves were left to dry at room temperature for 1 hour. Each dry leaf was then infested with 4 larvae (development stage L1), and the experimental device was incubated at 21° C.-23° C. for 24 h in order to optimize insect development. At two timings post infestation (3 days and 6 days), the insecticide efficacy is evaluated from the number of living larvae using the Henderson-Tilton method. Untreated control was integrated for normalization and validation of larvae health.

[3] = UV-stability of 5 mM solutions in acetonitrile, remaining compound by HPLC; assay type: physicochemical; conditions: for share of remaining compound 0 h: start value for both aliquots; for Purity changing: 0 h to 10 h
Experimental: Synthesized spinosyn compounds were used to prepare 5 mM solutions in acetonitrile. The solution was divided in 2 aliquots and one aliquot was exposed to UV light at 254 nm and the other aliquot was incubated in the same conditions without UV light exposure. Quantities of remaining starting compounds were determined by HPLC after 0 h, 1 h, 5 h and 10 h.

[4] = system: honey bees (Apis melifera carnica, Pollman 1879); conditions: previously established oral LD50 for honey bee; cited from earlier work
[5] = 0.078 nmol/bee oral single dose, 24 h after application
[6] = 0.078 nmol/bee oral single dose, 48 h after application
[7] = 0.155 nmol/bee oral single dose, 24 h after application
[8] = 0.155 nmol/bee oral single dose, 48 h after application
[9] = 25 °C, aqueous buffer, kinetic from dmso stock, K.S. 5.4 buffer pH 5.4, dose conc 200 μM, read-out: Kinetic Solubility pH = 5.4
[10] = 25 °C, aqueous buffer, kinetic from dmso stock, K.S. 7.4 buffer pH 7.4, dose conc 200 μM, read-out: Kinetic Solubility pH = 7.4
[11] = 72 h, read-out: % Efficacy 3 days, dose 0.1 μg a.i./ml, 3 days post infestation
[12] = 72 h, read-out: % Efficacy 3 days, dose 0.3 μg a.i./ml, 3 days post infestation
[13] = 144 h, read-out: % Efficacy 6 days, dose 0.1 μg a.i./ml, 6 days post infestation
[14] = 144 h, read-out: % Efficacy 6 days, dose 0.3 μg a.i./ml, 6 days post infestation

Compound | % of surviving honey bees [1, 5] [%] | % of surviving honey bees [1, 6] [%] | % of surviving honey bees [1, 7] [%] | % of surviving honey bees [1, 8] [%] | solubility kinetic at 24 h (Kinetic solubility assay; [9]) [µM] | solubility kinetic at 24 h (Kinetic solubility assay; [10]) [µM] | share of remaining compound 0 h [3] [%] | Purity changing ([3]; under UV light at 254 nm) [%] | share of remaining compound 1 h ([3]; under UV light at 254 nm) [%] | share of remaining compound 5 h ([3]; under UV light at 254 nm) [%] | share of remaining compound 10 h ([3]; under UV light at 254 nm) [%] | Purity changing ([3]; without UV) | share of remaining compound 1 h ([3]; without UV) [%] | share of remaining compound 5 h ([3]; without UV) [%] | share of remaining compound 10 h ([3]; without UV) [%] | % Efficacy 3 days ([2]; dose 0.1 μg a.i./ml) [%] | % Efficacy 6 days ([2]; dose 0.1 μg a.i./ml) [%] | % Efficacy 3 days ([2]; dose 0.3 μg a.i./ml) [%] | % Efficacy 6 days ([2]; dose 0.3 μg a.i./ml) [%] | also measured
CC/C=C/[C@H]1CCC[C@H](OC2CCC([N+](C)(C)COC(=O)C(C)(C)C)C(C)O2)[C@@H](C)C(=O)C2=C[C@@H]3[C@@H](C=CC4(OC)C[C@@H](OC5OC(C)C(OC)C(OC)C5OC)C[C@@H]34)[C@@H]2CC(=O)O1 (stereo partly drawn) [Compound J1A-H1] | 98 | 73 | 86 | 26 | – | – | – | – | – | – | – | – | – | – | – | – | – | – | – | –
CC/C=C/[C@H]1CCC[C@H](OC2CCC(N(C)C)C(C)O2)[C@@H](C)C(=O)C2=C[C@@H]3[C@@H](C=C[C@]4(OC)C[C@@H](OC5OC(C)C(OC)C(OC)C5OC)C[C@@H]34)[C@@H]2CC(=O)O1 (stereo partly drawn) [Compound H1, 7-methoxy butenyl spinosyn α1] | – | – | – | – | 183 (≈ 144 µg/mL) | 77.1 (≈ 60.8 µg/mL) | 96.0 | −22.5 | 95.6 | 87.5 | 73.5 | +0.7% | 96.5 | 96.9 | 96.7 | – | – | – | – | Emax [2, 11]: 27%; Emax [2, 12]: 58%; Emax [2, 13]: 89%; Emax [2, 14]: 100%; insecticidal activity on Ostrinia nubilalis larvae (in words) [2]: extremely potent insecticidal activity
CCC=CC1CCCC(OC2CCC(N(C)C)C(C)O2)C(C)C(=O)C2=CC3C(C=CC4CC(OC5OC(C)C(OC)C(OC)C5OC)CC43)C2CC(=O)O1 (stereo not drawn) [Butenyl spinosyn, butenyl spinosyn α1, reference compound] | 57 | 37 | 32 | 6 | – | – | 90.0 | −30.4 | 88.6 | 70.9 | 59.6 | −0.6% | 90.6 | 90.7 | 89.4 | 33 | 56 | 79 | 100 | solubility kinetic at 24 h (Kinetic solubility assay; K.S. 5.4 buffer pH 5.4, dose conc 200 μM, read-out: Kinetic Solubility pH = 5.4): 183.17 µM (≈ 139 µg/mL); solubility kinetic at 24 h (Kinetic solubility assay; K.S. 7.4 buffer pH 7.4, dose conc 200 μM, read-out: Kinetic Solubility pH = 7.4): 3.52 µM (≈ 2.67 µg/mL); toxicity to honey bees in acute oral toxicity test (in words) ([1]; compared to the derivatives provided by this invention): higher toxicity to honey bees
spinosad [SPN, reference compound] | – | – | – | – | – | – | – | – | – | – | – | – | – | – | – | 25 | 46 | 63 | 100 | LD50 [4]: 0.057 μg/bee
CC[C@H]1CCC[C@H](OC2CCC(N(C)C)C(C)O2)[C@@H](C)C(=O)C2=C[C@@H]3[C@@H](C=C[C@]4(OC)C[C@@H](OC5OC(C)C(OC)C(OC)C5OC)C[C@@H]34)[C@@H]2CC(=O)O1 (stereo partly drawn) [Compound H1a] | – | – | – | – | – | – | – | – | – | – | – | – | – | – | – | 15 | 41 | 64 | 93 | insecticidal activity on Ostrinia nubilalis larvae (in words) [2]: lower insecticidal activity
CC/C=C/[C@H]1CCC[C@H](OC2CCC([N+](C)(C)COC(=O)OC(C)C)C(C)O2)[C@@H](C)C(=O)C2=C[C@@H]3[C@@H](C=CC4(OC)C[C@@H](OC5OC(C)C(OC)C(OC)C5OC)C[C@@H]34)[C@@H]2CC(=O)O1 (stereo partly drawn) [Compound J7-H1] | 87 | 69 | 78 | 30 | – | – | – | – | – | – | – | – | – | – | – | – | – | – | – | –
CC/C=C/[C@H]1CCC[C@H](OC2CCC(N(C)C)C(C)O2)[C@@H](C)C(=O)C2=C[C@@H]3[C@@H](C=C[C@]4(O)C[C@@H](OC5OC(C)C(OC)C(OC)C5OC)C[C@@H]34)[C@@H]2CC(=O)O1 (stereo partly drawn) [Compound A1, 7-hydroxy butenyl spinosyn α1] | – | – | – | – | 192 (≈ 149 µg/mL) | 187 (≈ 144 µg/mL) | 90.7 | −38.5 | 86.6 | 71.3 | 52.2 | +0.2% | 90.7 | 90.8 | 90.9 | – | – | – | – | Emax [2, 11]: 2%; Emax [2, 12]: 15%; Emax [2, 13]: 2%; Emax [2, 14]: 19%
spinetoram [Spinoteram, reference compound] | – | – | – | – | – | – | – | – | – | – | – | – | – | – | – | 58 | 81 | 85 | 96 | –
CC/C=C/[C@H]1CCC[C@H](OC2CCC(N(C)C)C(C)O2)[C@@H](C)C(=O)C2=C[C@@H]3[C@@H](C=C[C@]4(OCC)C[C@@H](OC5OC(C)C(OC)C(OC)C5OC)C[C@@H]34)[C@@H]2CC(=O)O1 (stereo partly drawn) [Compound H2, 7-ethoxy butenyl spinosyn al] | – | – | – | – | 166 (≈ 133 µg/mL) | 7.68 (≈ 6.16 µg/mL) | 93.2 | −53.5 | 87.6 | 67.8 | 39.7 | −0.9% | 93.6 | 93.7 | 92.3 | – | – | – | – | –
